Measured values: patent US9481648B2, “Kinase inhibitors” (Respivert Limited, priority 2013, dated 2016)

Tests used:
[1] = test system: β-catenin in d-U937 cells; experiment: Accumulation of β catenin in d-U937 cells (assay m); format: cell-based, human
Procedure, shortened: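 U937 cells were differentiated with PMA (100 ng/mL) for 48–72 hr, then treated with compound or vehicle for 18 hr. After formaldehyde fixation, β-catenin was detected with a primary antibody and an HRP secondary using TMB (OD450–655). Signal was normalised to crystal violet cell staining (OD595).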

c-Src = c-Src (Homo sapiens (Human), UniProt P12931); experiment: c-Src enzyme inhibition (FRET, Z-LYTE); format: biochemical
Procedure, shortened: (§1)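 Syk or c-Src enzyme (3000 or 2000 ng/mL solutions) was preincubated 2 h at RT with compound solutions at 1, 0.1, 0.01 or 0.001 µg/mL. Z-LYTE FRET peptide (8 µM solution) and ATP (800 µM solution for c-Src, 60 µM for Syk) were then added for 1 h, followed by protease development for 1 h. Phosphorylation was read as the coumarin/fluorescein emission ratio.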

p38 MAPKα (MAPK14) = p38 MAPKα (MAPK14) (Homo sapiens (Human), UniProt Q16539); experiment: p38 MAPKα enzyme inhibition (FRET, Z-LYTE; Method 2); format: biochemical
Experimental: The enzyme inhibitory activities of compounds disclosed herein are determined by FRET using synthetic peptides labelled with both donor and acceptor fluorophores (Z-LYTE, Invitrogen Ltd., Paisley, UK).
The inhibitory activities of test compounds against the p38 MAPKα isoform (MAPK14: Invitrogen) are evaluated indirectly by determining the level of activation\phosphorylation of the down-stream molecule, MAPKAP-K2. The p38 MAPKα protein (80 ng/mL, 2.5 μL) is mixed with the test compound (2.5 μL of either 4 μg/mL, 0.4 μg/mL, 0.04 μg/mL or 0.004 μg/mL) for 2 hr at RT. […] The mixture is incubated for 1 hr at RT. Development reagent (protease, 5 μL) is added for 1 hr prior to detection in a fluorescence microplate reader (Vanoskan® Flash, ThermoFisher Scientific).
In all cases, the site-specific protease cleaves non-phosphorylated peptide only and eliminates the FRET signal. Phosphorylation levels of each reaction are calculated using the ratio of coumarin emission (donor) over fluorescein emission (acceptor), for which high ratios indicate high phosphorylation and low ratios indicate low phosphorylation levels.

GSK 3α = GSK 3α (Homo sapiens (Human), UniProt P49840); experiment: GSK 3α enzyme inhibition (FRET, Z-LYTE; Method 2); format: biochemical; conditions: read-out: IC50 Values for Enzyme Inhibition GSK3α
Procedure, shortened: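 Phosphorylation was taken from the donor (coumarin) to acceptor (fluorescein) emission ratio after 1 h protease development, which cleaves only unphosphorylated peptide. Before that, peptide (8 μM stock) plus ATP (40 μM stock) reacted 1 h. This followed a 105 min RT preincubation of GSK3-α with compound stocks of 10–0.01 μg/mL.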

Syk = Syk (Homo sapiens (Human), UniProt P43405); experiment: Syk enzyme inhibition (FRET, Z-LYTE); format: biochemical
Procedure, shortened: as §1

p38 MAPKα (MAPK14), sequence (Q16539 whole entry): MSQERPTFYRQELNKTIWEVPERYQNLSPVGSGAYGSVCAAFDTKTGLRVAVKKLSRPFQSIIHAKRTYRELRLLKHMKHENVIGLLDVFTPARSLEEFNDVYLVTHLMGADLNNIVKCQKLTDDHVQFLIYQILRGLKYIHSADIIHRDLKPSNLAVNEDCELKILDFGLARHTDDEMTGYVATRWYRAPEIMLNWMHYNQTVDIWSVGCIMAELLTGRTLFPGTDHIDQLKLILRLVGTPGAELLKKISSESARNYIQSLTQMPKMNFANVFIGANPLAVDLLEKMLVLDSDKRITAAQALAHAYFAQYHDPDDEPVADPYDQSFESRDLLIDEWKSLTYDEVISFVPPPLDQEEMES
c-Src, sequence (P12931 whole entry, looked up): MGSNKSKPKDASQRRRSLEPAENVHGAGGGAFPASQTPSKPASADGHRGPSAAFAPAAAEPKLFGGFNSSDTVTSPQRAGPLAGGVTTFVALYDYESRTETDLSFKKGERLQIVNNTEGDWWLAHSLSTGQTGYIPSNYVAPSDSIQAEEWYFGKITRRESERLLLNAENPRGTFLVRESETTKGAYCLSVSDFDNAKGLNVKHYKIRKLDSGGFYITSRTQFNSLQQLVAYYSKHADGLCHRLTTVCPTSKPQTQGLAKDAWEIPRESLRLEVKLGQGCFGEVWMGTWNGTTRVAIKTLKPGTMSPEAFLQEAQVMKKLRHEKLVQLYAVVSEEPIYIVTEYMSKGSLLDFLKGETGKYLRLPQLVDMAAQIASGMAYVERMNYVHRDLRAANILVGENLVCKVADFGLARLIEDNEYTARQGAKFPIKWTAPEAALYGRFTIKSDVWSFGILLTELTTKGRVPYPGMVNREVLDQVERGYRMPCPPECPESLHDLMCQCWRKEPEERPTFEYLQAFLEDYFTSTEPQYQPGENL
GSK 3α, sequence (P49840 whole entry): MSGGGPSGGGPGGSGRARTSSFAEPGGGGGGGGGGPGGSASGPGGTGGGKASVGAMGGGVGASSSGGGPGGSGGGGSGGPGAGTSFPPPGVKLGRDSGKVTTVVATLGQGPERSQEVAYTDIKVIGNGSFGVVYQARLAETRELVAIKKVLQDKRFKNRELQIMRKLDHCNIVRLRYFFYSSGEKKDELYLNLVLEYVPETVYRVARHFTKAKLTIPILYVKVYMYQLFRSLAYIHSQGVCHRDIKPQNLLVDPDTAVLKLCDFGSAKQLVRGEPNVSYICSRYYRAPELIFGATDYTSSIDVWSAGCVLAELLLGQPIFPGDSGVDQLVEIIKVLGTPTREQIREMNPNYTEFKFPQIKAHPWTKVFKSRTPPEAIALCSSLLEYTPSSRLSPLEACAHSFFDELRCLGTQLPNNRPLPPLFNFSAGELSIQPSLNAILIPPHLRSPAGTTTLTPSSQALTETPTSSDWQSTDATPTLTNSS

Row | IC50 (c-Src) [nM] | IC50 (p38 MAPKα (MAPK14)) [nM] | IC50 (GSK 3α) [nM] | IC50 (Syk) [nM] | Compound | % β-catenin induction ([1]; test compound 1 μg/mL) [%] | % β-catenin induction ([1]; test compound 5 μg/mL) [%] | % β-catenin induction ([1]; test compound 10 μg/mL) [%]
1 | 11 | 49 | 1010 | 106 | COCCOCCOCCOCCOCCOCCOCCOc1cc(Nc2nccc(Oc3ccc(NC(=O)Nc4cc(C(C)(C)C)cc(NS(C)(=O)=O)c4OC)c4ccccc34)n2)cc(OC)c1 [Example 14, N-(3-(3-(4-((2-((3-(2,5,8,11,14,17,20-Heotaoxadocosan-22-yloxy)-5-methoxyphenyl)amino)-pyrimidin-4-yl)oxy)naphthalen-1-yl)ureido)-5-(tert-butyl)-2-methoxyphenyl)-methanesulfonamide] | 0 | 16 | 14
2 | 100 | 277 | 12600 | 1260 | C#Cc1cc(Nc2cc(Oc3ccc(NC(=O)Nc4cc(C(C)(C)C)cc(NS(C)(=O)=O)c4OC)c4ccccc34)ccn2)cc(C(=O)NCCOCCOC)c1 [Example 52] | 2 | 9 | 1
3 | 21 | 124 | 12200 | 193 | COCCOCCOCCOc1cc(Nc2cc(Oc3ccc(NC(=O)Nc4cc(C(C)(C)C)cc(NS(C)(=O)=O)c4OC)c4ccccc34)ccn2)cc(OC)c1 [Example 11, N-(5-(tert-Butyl)-2-methoxy-3-(3-(4-((2-((3-methoxy-5-(2-(2-(2-methoxyethoxy)ethoxy)-ethoxy)phenyl)amino)pyridin-4-yl)oxy)naphthalen-1-yl)ureido)phenyl)-methanesulfonamide] | −8 | −5 | −2
4 | 16 | 69 | 2090 | 67 | COCCOCCOc1cc(Nc2nccc(Oc3ccc(NC(=O)Nc4cc(C(C)(C)C)cc(NS(C)(=O)=O)c4OC)c4ccccc34)n2)cc(OC)c1 [Example 36, N-(5-(tert-Butyl)-2-methoxy-3-(3-(4-((2-((3-methoxy-5-(2-(2-methoxyethoxy)ethoxy)-phenyl)amino)pyrimidin-4-yl)oxy)naphthalen-1-yl)ureido)phenyl)methanesulfonamide] | −4 | 28 | 18
5 | 85 | 326 | 7400 | 1290 | C#Cc1cc(Nc2cc(Oc3ccc(NC(=O)Nc4cc(NS(C)(=O)=O)cc(C(C)(C)C)c4)c4ccccc34)ccn2)cc(C(=O)NCCN2CCOCC2)c1 [Example 65, 3-((4-((4-(3-(3-(tert-Butyl)-5-(methylsulfonamido)phenyl)ureido)naphthalen-1-yl)oxy)-pyridin-2-yl)amino)-5-ethynyl-N-(2-morpholinoethyl)benzamide] | 5 | 2 | 6
6 | 56 | 245 | 11700 | 1170 | C#Cc1cc(Nc2cc(Oc3ccc(NC(=O)Nc4cc(C(C)(C)C)cc(NS(C)(=O)=O)c4OC)c4ccccc34)ccn2)cc(C(=O)N[C@@H](C)COCCOCCOC)c1 [Example 67] | 3 | 2 | −2
7 | 9 | 39 | 516 | 554 | COCCOCCOCCNC(=O)c1cc(Nc2nccc(Oc3ccc(NC(=O)Nc4cc(C(C)(C)C)cc(NS(C)(=O)=O)c4OC)c4ccccc34)n2)cc(OC)c1 [Example 7] | 13 | 29 | 29
8 | 12 | 118 | 657 | 51 | C#Cc1cc(Nc2nccc(Oc3ccc(NC(=O)Nc4cc(C(C)(C)C)cc(NS(C)(=O)=O)c4OC)c4ccccc34)n2)cc(C(=O)NCCN2CCOCC2)c1 [Example 1, 3-((4-((4-(3-(5-(tert-Butv)-2-methoxy-3-(methysulfonamido)phenyl)ureido)naphthalen-1-yl)oxy)pyrimidin-2-yl)amino)-5-ethynyl-N-(2-morpholinoethyl)benzamide] | 18 | 17 | –
9 | 36 | 77 | 4470 | 125 | COc1cc(Nc2cc(Oc3ccc(NC(=O)Nc4cc(C(C)(C)C)cc(NS(C)(=O)=O)c4OC)c4ccccc34)ccn2)cc(OCCOCCOCCO)c1 [84(e), 1-[5-tert-Butyl-3-(methanesulfonamido)-2-methoxy-phenyl]-3-[4-[[2-[3-[2-[2-(2-hydroxyethoxy)ethoxy]ethoxy]-5-methoxy-anilino]-4-pyridyl]oxy]-1-naphthyl]urea] | −1 | 5 | 7
10 | 28 | 86 | 2280 | 137 | COc1cc(CO)cc(Nc2cc(Oc3ccc(NC(=O)Nc4cc(C(C)(C)C)cc(C(N)=O)c4OC)c4ccccc34)ccn2)c1 [84(g), 5-tert-Butyl-3-[[4-[[2-[3-(hydroxymethyl)-5-methoxyanilino]-4-pyridyl]oxy]-1-naphthyl]carbamoylamino]-2-methoxybenzamide] | 1 | 8 | 7
11 | 42 | 140 | 11900 | 1190 | C#Cc1cc(Nc2cc(Oc3ccc(NC(=O)Nc4cc(C(C)(C)C)cc(NS(C)(=O)=O)c4OC)c4ccccc34)ccn2)cc(C(=O)NCCOCCOCCOC)c1 [Example 54] | 5 | 5 | −2

Row | Compound | IC50 (c-Src) [nM] | IC50 (p38 MAPKα (MAPK14)) [nM] | IC50 (GSK 3α) [nM] | IC50 (Syk) [nM] | % β-catenin induction ([1]; test compound 1 μg/mL) [%] | % β-catenin induction ([1]; test compound 5 μg/mL) [%] | % β-catenin induction ([1]; test compound 10 μg/mL) [%]
12 | CNC(=O)c1cc(C(C)(C)C)cc(NC(=O)Nc2ccc(Oc3ccnc(Nc4cc(OC)cc(OCCOCCOCCOC)c4)n3)c3ccccc23)c1OC [Example 13, 5-(tert-Butyl)-2-methoxy-3-(3-(4-((2-((3-methoxy-5-(2-(2-(2-methoxyethoxy)ethoxy)-ethoxy)phenyl)amino)pyrimidin-4-yl)oxy)naphthalen-1-yl)ureido)-N-methylbenzamide] | 9 | 28 | 824 | 35 | 7 | 34 | 26
13 | COCCOCCOCCOc1cc(Nc2cc(Oc3ccc(NC(=O)Nc4cc(C(C)(C)C)cc(C(=O)NCCN(C)C)c4OC)c4ccccc34)ccn2)cc(OC)c1 [Example 76, 5-(tert-Butyl)-N-(2-(dimethylamino)ethyl)-2-methoxy-3-(3-(4-((2-((3-methoxy-5-(2-(2-(2-methoxyethoxy)ethoxy)ethoxy)phenyl)amino)pyridin-4-yl)oxy)naphthalen-1-yl)ureido)-benzamide] | 31 | 159 | 4790 | 35 | 2 | −1 | −13
